According to patent publication US6127409A, “Ascorbic acid derivative and vitamin C preparation containing the same” (priority 1997, dated 2000):
Where a name gives a salt, the structure may show the parent alone. Read-outs that look alike come from different tables or passages of the source.

Legend:
[1] = Stability: residual ratio (concentration after storage/initial concentration) by HPLC after standing at room temperature for 10 days; type: physicochemical; conditions: water
Description: Then, their residual ratios (concentration after storage/initial concentration) were determined by HPLC through a column Shodex Asahipak NH2P-50 4E (trade name, manufactured by Showa Denko KK) to evaluate stability.

[2] = test system: normal human adult mamma epidermal Keratinocyte; type: cell-based; conditions: 20 hours culture
Description: About 6×10^5 cells of a normal human adult mamma epidermal Keratinocyte (available from Kurashiki Boseki KK) were sowed on a 60 mm plate and cultured in a serum-free culturing medium (manufactured by Kurashiki Boseki KK) for 2 hours, and after displacing with the same culturing medium having added thereto from 2 to 50 μM of an ascorbic acid or a derivative thereof, further cultured for 20 hours. The cells were collected by trypsin treatment, and the number of cells was counted by a Coulter Counter Model DN (trade name, manufactured by Coulter Electronics). The cells thus collected were washed with Hank's equilibrium salt solution, pulverized in an ultrasonic homogenizer, filtered through a Mol-cut II (UFPlLCC) (trade name, produced by Nippon Milipore KK) and analyzed by HPLC through a column Shodex Asahipak NH2P-50 4E (trade name, produced by Showa Denko KK). The amount of ascorbic acid and derivatives thereof was measured to determine the intracellular cumulative amount. As a control, culturing was performed in the same manner as above except for not adding ascorbic acid or a derivative thereof, and the ascorbic acid was quantitatively determined. The difference in the intracellular ascorbic acid cumulative amount between the case where ascorbic acid or a derivative thereof was added and the case where ascorbic acid or a derivative thereof was not added is shown in Table 2. […]

remaining at 240 h, 2000 µM [1]	Structure (SMILES)	remaining at 240 h, 2000 µM ([1]; 2 mM aqueous solution, room temperature, 10 days, HPLC, read-out: Stability (residual ratio: concentration after storage/initial concentration))	Intracellular Cumulative Amount (difference from not added) ([2]; addition amount 2 μM)	Intracellular Cumulative Amount (difference from not added) ([2]; addition amount 50 μM)
–	O=C1O[C@H]([C@@H](O)CO)C(O)=C1OP(=O)([O-])[O-].[Mg+2] [L-Ascorbic acid-2-phosphate magnesium salt]	97%	< 0.0002 Pmole/cell	0.0022 Pmole/cell
98%	CCCCCCCCCCCCCCCC(=O)OC[C@H](O)[C@H]1OC(=O)C(OP(=O)(O)O)=C1O [L-Ascorbic acid-2-phosphate-6-palmitate magnesium salt]	–	–	–
